In the supplement of paper PMC5844555:

Columns and labels:
Experiment in all cases: 3' UTR reporter interaction score (median-centred robust z-score of log2 firefly/Renilla activity); higher = less repression of the 3' UTR reporter
Settings in all cases: HEK293T; 48 h
[1] = tested on: BRCA2
In short: (§1)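 HEK293T cells (10,000/well, 96-well plates) were co-transfected using DharmaFECT Duo with 100 ng firefly luc2P reporter carrying the gene's 3' UTR, 20 ng Renilla pRL-TK control and 2.5 pmol miRNA mimic. Dual-luciferase activities were read 48 h post-transfection. The interaction score is the log-transformed firefly/Renilla ratio as a per-plate robust z-score (median, median absolute deviation), median-centred per miRNA and averaged over at least two independent screens; more negative indicates interaction.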

[2] = tested on: EZH2
In short: as §1

[3] = tested on: FBXW7
In short: as §1

[4] = tested on: HRAS
In short: as §1

[5] = tested on: MYB
In short: as §1

[6] = tested on: MYCN
In short: as §1

[7] = tested on: MYC
In short: as §1

[8] = tested on: MYT1L
In short: as §1

[9] = tested on: NOTCH1
In short: as §1

[10] = tested on: PHF6
In short: as §1

[11] = tested on: PHOX2B
In short: as §1

[12] = tested on: RB1
In short: as §1

[13] = tested on: TP53
In short: as §1

[14] = tested on: ZEB2
In short: as §1

Sequence | 3' UTR reporter interaction score [1] | 3' UTR reporter interaction score [2] | 3' UTR reporter interaction score [3] | 3' UTR reporter interaction score [4] | 3' UTR reporter interaction score [5] | 3' UTR reporter interaction score [6] | 3' UTR reporter interaction score [7] | 3' UTR reporter interaction score [8] | 3' UTR reporter interaction score [9] | 3' UTR reporter interaction score [10] | 3' UTR reporter interaction score [11] | 3' UTR reporter interaction score [12] | 3' UTR reporter interaction score [13] | 3' UTR reporter interaction score [14]
CAACCUGGAGGACUCCAUGCUG | 0.635 | 0.157 | 0.0371 | 0.685 | 1.15 | 0.831 | 0.486 | 0.329 | -0.127 | -0.934 | -0.796 | -2.92 | 0.0572 | 0.335
CAACGGAAUCCCAAAAGCAGCU | -0.135 | 0.561 | -0.229 | 0.275 | -0.0583 | -0.12 | 0.282 | -1.32 | 0.629 | -0.143 | -0.397 | 0.747 | -0.924 | 0.375
CAAGUCACUAGUGGUUCCGUUUA | 0.252 | 0.168 | 1.35 | -1.48 | -0.363 | -0.0757 | -1.07 | -1.25 | 1.15 | -0.71 | 0.0612 | 1.58 | -0.393 | 1.99
CACACACUGCAAUUACUUUUGC | 1.28 | 0.0197 | -1.17 | 0.537 | -0.132 | 0.192 | 0.144 | 0.0502 | -1.12 | -0.242 | 0.662 | -0.83 | 0.266 | -2.35
CACCCGUAGAACCGACCUUGCG | 0.615 | -0.866 | 0.377 | 0.575 | 0.655 | -0.0242 | 0.596 | -0.00069 | -0.125 | -0.967 | -3.87 | -0.00577 | -0.17 | -1.09
CACUCAGCCUUGAGGGCACUUUC | 0.623 | 0.269 | -1.64 | -0.0814 | 1.11 | 1.12 | -1.6 | -1.55 | 0.801 | -4 | 0.0189 | 0.059 | 0.0719 | 0.556
CAGCAGCAAUUCAUGUUUUGAA | 0.886 | -0.709 | -2.64 | -0.93 | -2.05 | -0.622 | -0.0621 | -4.35 | 0.0853 | 2.81 | 1.12 | 0.649 | 0.52 | 0.626
CAGCAGCACACUGUGGUUUGU | 0.267 | -1.21 | -2.99 | -1.05 | -2.62 | -0.42 | 0.347 | -4.01 | -0.283 | 1.13 | 0.464 | -0.141 | -0.308 | 1.1
CAGUAACAAAGAUUCAUCCUUGU | -0.621 | 0.69 | -0.152 | 0.555 | 0.361 | 1.32 | -0.308 | -0.326 | -0.945 | -3.72 | -1.19 | -3.18 | -0.52 | 0.308
CAGUGCAAUGAUGAAAGGGCAU | -0.463 | -0.471 | 0.958 | -0.234 | -1.75 | 1.64 | 0.674 | 0.286 | 0.857 | 0.644 | -0.853 | 1.03 | -0.295 | -0.474
CAGUGCAAUGUUAAAAGGGCAU | -0.00105 | -0.606 | 0.774 | -0.0408 | -1.89 | 1.42 | 0.265 | -0.334 | 0.727 | 0.0914 | 0.897 | 1.55 | -0.31 | -0.231
CAUAAAGUAGAAAGCACUAC | 0.352 | -0.0463 | -0.553 | -0.266 | -0.0675 | -0.0538 | 0.0993 | -0.385 | 0.3 | -0.673 | 0.845 | 0.941 | -0.122 | -0.00923
CAUCCCUUGCAUGGUGGAGGGU | -0.755 | 0.459 | -2.06 | -0.474 | 0.193 | 1.03 | 0.286 | -1.78 | 0.0724 | -0.203 | -0.0949 | -1.51 | 0.105 | -1.03
CAUCUGGAGGUAAGAAGCACUUU | 0.269 | 0.237 | 0.143 | 0.165 | -2.31 | -0.232 | -0.242 | -1.9 | -0.32 | 1.19 | -0.503 | 0.4 | -1.18 | 1.48
CAUCUUACCGGACAGUGCUGGA | 0.868 | 0.0963 | -0.296 | 0.319 | -1.55 | -0.576 | -0.0291 | -0.174 | 0.335 | 0.881 | 0.65 | -0.297 | -0.701 | -2.11
CAUGCCUUGAGUGUAGGACCGU | 0.421 | 0.42 | 0.998 | -0.893 | 0.293 | -0.364 | -1.17 | -1.07 | -0.883 | 1.76 | -1.4 | 0.637 | 0.524 | -1.59
CAUUGCACUUGUCUCGGUCUGA | 0.658 | 0.125 | -0.0954 | -0.416 | -0.142 | -0.0953 | 0.278 | 0.397 | -0.145 | -1.24 | -0.664 | 0.825 | -0.48 | -2.69
CCACACCGUAUCUGACACUUU | -0.654 | -0.643 | 0.287 | -0.828 | -0.254 | 0.101 | -1.37 | 0.0842 | -0.439 | 0.504 | 0.567 | 0.211 | 0.0153 | 1.51
CCACUGCCCCAGGUGCUGCUGG | -0.289 | -0.183 | -0.902 | -0.594 | 0 | 0.562 | 0.494 | 1.35 | -1.62 | 0.422 | 0.479 | 0.0205 | -1.28 | -1.03

Sequence | 3' UTR reporter interaction score [1] | 3' UTR reporter interaction score [2] | 3' UTR reporter interaction score [3] | 3' UTR reporter interaction score [4] | 3' UTR reporter interaction score [5] | 3' UTR reporter interaction score [6] | 3' UTR reporter interaction score [7] | 3' UTR reporter interaction score [8] | 3' UTR reporter interaction score [9] | 3' UTR reporter interaction score [10] | 3' UTR reporter interaction score [11] | 3' UTR reporter interaction score [12] | 3' UTR reporter interaction score [13] | 3' UTR reporter interaction score [14]
CCCAGAUAAUGGCACUCUCAA | 0.00154 | 0.0427 | -0.29 | 0.111 | 0.409 | -0.998 | 0.82 | 0.0372 | -0.834 | -0.296 | 0.745 | -2.36 | -0.804 | 0.427
CCCAGUGUUCAGACUACCUGUUC | 0.218 | -0.25 | -0.85 | -0.0015 | 1.64 | 0.198 | 0.666 | 2.99 | 0.374 | 0.112 | -0.196 | -1.81 | -0.337 | -0.517
CCCAGUGUUUAGACUAUCUGUUC | 0.494 | -0.185 | -0.738 | -0.315 | 0.059 | 0.905 | 0.186 | 1.93 | -0.226 | 0.458 | -0.251 | -0.794 | -0.323 | 0.476
CCUCUAGAUGGAAGCACUGUCU | 1.43 | 0.875 | -0.485 | 0.49 | 1.05 | -0.452 | -0.352 | -0.377 | 0.00559 | 0.44 | -0.512 | 1.24 | -0.0691 | 0.763
CCUCUGGGCCCUUCCUCCAG | 1.66 | -0.302 | -0.553 | 0.196 | 0.205 | 0.2 | -0.307 | -1.13 | -0.555 | 1.9 | -0.825 | 0.604 | 1.37 | 0.525
CGAAUGUUGCUCGGUGAACCCCU | -0.821 | -0.254 | 0.304 | -0.194 | 0.287 | 0.119 | 0.217 | 0.642 | 1.32 | -1.07 | 1.32 | 0.281 | -0.241 | -0.941
CGCAUCCCCUAGGGCAUUGGUGU | 0.625 | 0.639 | -0.0954 | 1.06 | -0.38 | -0.239 | 0.19 | -3.16 | -1.34 | -0.956 | 0.221 | -0.799 | 0.263 | -0.392
CGGGUGGAUCACGAUGCAAUUU | 0.639 | -0.645 | 0.899 | -0.371 | -0.118 | 0.00745 | 0.166 | 0.0585 | 0.128 | -0.0241 | -0.988 | 0.702 | 0.809 | -1.87
CUAAUAGUAUCUACCACAAUAAA | 0.274 | 0.167 | 0.465 | -0.78 | 1.16 | 0.604 | -0.306 | -0.606 | 0.264 | -0.303 | 0.231 | -0.459 | -0.375 | 0.675
CUACAAAGGGAAGCACUUUCUC | -0.805 | 0.77 | -0.7 | -1.25 | 0.666 | -0.614 | 0.411 | 0.757 | 0.148 | 0.716 | 1.76 | 0.032 | -1.31 | -3.59
CUCCAGAGGGAAGUACUUUCU | -0.139 | -0.448 | 1.4 | -1.03 | 1.53 | -0.236 | -0.333 | 1.19 | -0.176 | 1.27 | 0.786 | -2.92 | -0.641 | 0.514
CUCCAGAGGGAUGCACUUUCU | -0.169 | 0.363 | -0.219 | -0.937 | -0.659 | -0.234 | 0.629 | 0.128 | 0.885 | 1.04 | 1.08 | 0.459 | 0.339 | -0.701
CUCUAGAGGGAAGCACUUUCU | -0.166 | -0.021 | -1.73 | 0.934 | 1.78 | -0.174 | 0.565 | -0.138 | 0.59 | -0.252 | -1.07 | -0.897 | -0.127 | 1.31
CUCUAGAGGGAAGCACUUUCUCU | -0.0386 | -0.139 | -2.17 | 1.4 | 2.18 | -0.181 | 0.549 | 0.381 | 0.176 | -0.193 | -2.05 | -0.223 | -0.432 | -0.685
CUCUAGAGGGAAGCGCUUUCUGUU | -0.378 | -0.269 | -0.944 | -0.0223 | 1.71 | -0.278 | 0.337 | 0.721 | 1.16 | -0.0745 | -1.2 | -0.121 | 0.361 | 0.37
CUCUUGAGGGAAGCACUUUCUGUU | 0.199 | 1.02 | 1.21 | -0.664 | 1.52 | 0.894 | -0.277 | 0.407 | -0.119 | -2.75 | -0.0184 | -0.331 | 0.305 | -0.69
CUGAAGUGAUGUGUAACUGAUCAG | -1.33 | 0.809 | -0.0116 | 0.253 | -1.34 | -0.441 | 0.252 | 1.21 | 2.11 | -0.442 | -1.07 | -0.534 | 0.516 | -0.764
CUGACCUAUGAAUUGACAGCC | -0.668 | -0.124 | -0.577 | 0.344 | 0.682 | 1.31 | 1.2 | 0.445 | 0.282 | -3.78 | -1.28 | -2.94 | 0.334 | -6.22
CUGCAAAGGGAAGCCCUUUCU | -0.0732 | -3.8 | -3.15 | 0.112 | 1.16 | 1.29 | 1.15 | 0.529 | -1.22 | -2.67 | -0.887 | 1.27 | 0.104 | -4.11
